{
  "source": "patent US9677978B2",
  "about": "“Fixative solution, for fixation and preservation of biological samples” (priority 2011, dated 2017)",
  "origin": "cited, not measured here",
  "details": "in 20 months; commercial biocide solutions stabilized by antioxidants",
  "data": [
    {"smiles": "N#CC(Br)(Br)C(N)=O", "note": "[DBPNA, 2,2-Dibromo-3-nitrilopropionamide]", "values": [
      {"measurement": "degradation of DBPNA", "value": "< 10", "unit": "%"}
    ]}
  ]
}
